Data on 3 compounds can be found in ChEMBL document CHEMBL1201862, “PubChem BioAssay data set” (2004).

The structures appear in SMILES notation.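 All cell lines were grown in 96-well plates and treated with compound for 48 hours. The concentration for 50% growth inhibition is given as GI50.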 Activity calls are given as the source filed them. No stated cut-off is given here; in the data, active = GI50 up to about 1.1 µM and inactive = higher.

Among the test systems are BT-549; HCC 2998; HOP-92; Hs-578T; IGROV-1; KM12; LOX IMVI; LXFL 529; MOLT-4; NCI-H460; OVCAR-3; OVCAR-5; OVCAR-8; SF-268; SK-MEL-5; SN12C; SNB-19; SNB-75; SW-620; MDA-MB-231.
Holding throughout (assay): NCI anticancer screen, dose series, 48 h

Take `CC[N+]1(C)CCC(O)(c2ccc(OC)cc2)C(C(=O)c2ccc(OC)cc2)C1` (centres undefined): the GI50 with BT-549 is 16 µM (inactive); in the test with HCC 2998, 19.6 µM (inactive); with HOP-92, 2.63 µM (inactive); with Hs-578T, 0.0368 µM (active); with IGROV-1, 20.5 µM (inactive); in the test with KM12, 16 µM (inactive). Further, the GI50 in the test with LOX IMVI was 16.3 µM (inactive); in the test on LXFL 529, 3.49 µM (inactive); in the test with MOLT-4 it was 2.23 µM (inactive); in the test on NCI-H460 it was 21.8 µM (inactive); in the test with OVCAR-3 it was 12.4 µM (inactive); in the test with OVCAR-5, 18.7 µM (inactive). Besides, the GI50 was 21 µM (inactive) in the test on OVCAR-8; 21.2 µM (inactive) in the test with SF-268; 15.4 µM (inactive) in the test on SK-MEL-5; 18.2 µM (inactive) in the test with SN12C; 32.1 µM (inactive) with SNB-19; 13.7 µM (inactive) with SNB-75. For the same compound, the GI50 with SW-620 was 2.08 µM (inactive).
With `Nc1ccn(C2OC(CO)C(O)C2O)c(=O)n1` (centres undefined), the GI50 was 286 µM (inactive) in the test with BT-549; 107 µM (inactive) with HCC 2998; 9.55 µM (inactive) with HOP-92; > 481 µM (inactive) with Hs-578T; 313 µM (inactive) with IGROV-1; 468 µM (inactive) with KM12. The GI50 in the test on LOX IMVI is 0.219 µM (active); in the test with LXFL 529, > 443 µM (inactive); with MDA-MB-231 it was 196 µM (inactive); in the test on MOLT-4, 0.0582 µM (active); in the test on NCI-H460, 0.0885 µM (active); with OVCAR-3 it was 429 µM (inactive). Besides, the GI50 was 21.2 µM (inactive) in the test with OVCAR-5; 0.818 µM (active) in the test with OVCAR-8; 3.15 µM (inactive) in the test on SF-268; 19.8 µM (inactive) in the test on SK-MEL-5; 2.38 µM (inactive) in the test with SN12C; 7.98 µM (inactive) with SNB-19. Moreover, the GI50 was 308 µM (inactive) in the test with SNB-75 and 31.4 µM (inactive) with SW-620.
`CCOc1ccc2nc(NC(=O)C(=O)C(C(=O)c3ccccc3-c3ccccc3)C3OC(=O)c4ccccc43)sc2c1` (centres undefined): the GI50 in the test with BT-549 was 16.7 µM (inactive); in the test on HCC 2998, 18.5 µM (inactive); in the test with HOP-92, 17.5 µM (inactive); in the test with Hs-578T, 34.8 µM (inactive); with IGROV-1, 26.7 µM (inactive); in the test on KM12, 8.93 µM (inactive). Also, the GI50 in the test on LOX IMVI was 17.5 µM (inactive); in the test with LXFL 529, 17.4 µM (inactive); in the test on MDA-MB-231 it was 25.9 µM (inactive); with MOLT-4, 13.2 µM (inactive); in the test on NCI-H460, 19.5 µM (inactive); in the test on OVCAR-3, 18.7 µM (inactive). The GI50 in the test with OVCAR-5 is 44.3 µM (inactive); in the test with OVCAR-8 it was 8.22 µM (inactive); in the test on SF-268, 19.8 µM (inactive); in the test with SK-MEL-5, 16.2 µM (inactive); in the test with SN12C, 11.7 µM (inactive); in the test with SNB-19, 14 µM (inactive). Besides, the GI50 was 21.3 µM (inactive) in the test on SNB-75 and 26.6 µM (inactive) in the test on SW-620.
